According to ChEMBL document CHEMBL1152667, “Synthesis and radiopharmacological investigation of 3-[4'-[(18)F]fluorobenzylidene]indolin-2-one as possible tyrosine kinase inhibitor” (Bioorg Med Chem, 2009):

Legend:
Pancreas [1] = test: Biodistribution in Wistar rat pancreas at 1.7 MBq, iv administered as single dose measured after 10 mins post-injection by gamma counting; type: ADME, organism-based; settings: in vivo
Heart = test: Biodistribution in Wistar rat heart at 1.7 MBq, iv administered as single dose measured after 10 mins post-injection by gamma counting; type: ADME, organism-based; settings: in vivo
Femur [2] = test: Biodistribution in Wistar rat femur at 1.7 MBq, iv administered as single dose measured after 10 mins post-injection by gamma counting; type: ADME, organism-based; settings: in vivo
Kidney [3] = test: Biodistribution in Wistar rat kidney at 1.7 MBq, iv administered as single dose measured after 30 mins post-injection by gamma counting; type: ADME, organism-based; settings: in vivo, 0.5 h
Lung [4] = test: Biodistribution in Wistar rat lung at 1.7 MBq, iv administered as single dose measured after 30 mins post-injection by gamma counting; type: ADME, organism-based; settings: in vivo, 0.5 h
[5] = Metabolic stability in Wistar rat blood assessed as compound remaining at 30 MBq, iv after 3 mins by radio-HPLC analysis; type: ADME, organism-based; settings: read-out: Stability
[6] = Metabolic stability in Wistar rat blood assessed as compound remaining at 30 MBq, iv after 20 mins by radio-HPLC analysis; type: ADME, organism-based; settings: read-out: Stability
Brain [7] = test: Biodistribution in Wistar rat brain at 1.7 MBq, iv administered as single dose measured after 60 mins post-injection by gamma counting; type: ADME, organism-based; settings: in vivo, 1 h
[8] = Ratio of drug level in liver to blood in Wistar rat at 1.7 MBq, iv administered as single dose measured after 5 mins post-injection; type: ADME, organism-based
Brain [9] = test: Biodistribution in Wistar rat brain assessed as standard uptake value at 1.7 MBq, iv administered as single dose measured after 30 mins post-injection by gamma counting; type: ADME, organism-based; settings: in vivo, 0.5 h
Spleen [10] = test: Biodistribution in Wistar rat spleen assessed as standard uptake value at 1.7 MBq, iv administered as single dose measured after 30 mins post-injection by gamma counting; type: ADME, organism-based; settings: in vivo, 0.5 h
Adrenal gland [11] = test: Biodistribution in Wistar rat adrenal gland assessed as standard uptake value at 1.7 MBq, iv administered as single dose measured after 30 mins post-injection by gamma counting; type: ADME, organism-based; settings: in vivo, 0.5 h
Kidney [12] = test: Biodistribution in Wistar rat kidney assessed as standard uptake value at 1.7 MBq, iv administered as single dose measured after 30 mins post-injection by gamma counting; type: ADME, organism-based; settings: in vivo, 0.5 h
[13] = Biodistribution in Wistar rat adipose tissue assessed as standard uptake value at 1.7 MBq, iv administered as single dose measured after 1 min post-injection by gamma counting; type: ADME, organism-based; settings: in vivo
Lung [14] = test: Biodistribution in Wistar rat lung assessed as standard uptake value at 1.7 MBq, iv administered as single dose measured after 1 min post-injection by gamma counting; type: ADME, organism-based; settings: in vivo
[15] = Biodistribution in Wistar rat thyroid gland assessed as standard uptake value at 1.7 MBq, iv administered as single dose measured after 1 min post-injection by gamma counting; type: ADME, organism-based; settings: in vivo
Muscle tissue [16] = test: Biodistribution in Wistar rat muscle assessed as standard uptake value at 1.7 MBq, iv administered as single dose measured after 30 mins post-injection by gamma counting; type: ADME, organism-based; settings: in vivo, 0.5 h
Thymus [17] = test: Biodistribution in Wistar rat thymus assessed as standard uptake value at 1.7 MBq, iv administered as single dose measured after 30 mins post-injection by gamma counting; type: ADME, organism-based; settings: in vivo, 0.5 h
Femur [18] = test: Biodistribution in Wistar rat femur assessed as standard uptake value at 1.7 MBq, iv administered as single dose measured after 30 mins post-injection by gamma counting; type: ADME, organism-based; settings: in vivo, 0.5 h
Blood = test: Biodistribution in Wistar rat blood assessed as standard uptake value at 1.7 MBq, iv administered as single dose measured after 60 mins post-injection by gamma counting; type: ADME, organism-based; settings: in vivo, 1 h
[19] = Biodistribution in Wistar rat brown adipose tissue assessed as standard uptake value at 1.7 MBq, iv administered as single dose measured after 60 mins post-injection by gamma counting; type: ADME, organism-based; settings: in vivo, 1 h
Brain [20] = test: Biodistribution in Wistar rat brain assessed as standard uptake value at 1.7 MBq, iv administered as single dose measured after 60 mins post-injection by gamma counting; type: ADME, organism-based; settings: in vivo, 1 h
[21] = Biodistribution in Wistar rat adipose tissue assessed as standard uptake value at 1.7 MBq, iv administered as single dose measured after 60 mins post-injection by gamma counting; type: ADME, organism-based; settings: in vivo, 1 h
Thymus [22] = test: Biodistribution in Wistar rat thymus assessed as standard uptake value at 1.7 MBq, iv administered as single dose measured after 60 mins post-injection by gamma counting; type: ADME, organism-based; settings: in vivo, 1 h
Liver = test: Biodistribution in Wistar rat liver assessed as standard uptake value at 1.7 MBq, iv administered as single dose measured after 60 mins post-injection by gamma counting; type: ADME, organism-based; settings: in vivo, 1 h
Femur [23] = test: Biodistribution in Wistar rat femur assessed as standard uptake value at 1.7 MBq, iv administered as single dose measured after 60 mins post-injection by gamma counting; type: ADME, organism-based; settings: in vivo, 1 h
Pancreas [24] = test: Biodistribution in Wistar rat pancreas assessed as standard uptake value at 1.7 MBq, iv administered as single dose measured after 5 mins post-injection by gamma counting; type: ADME, organism-based; settings: in vivo
[25] = Biodistribution in Wistar rat adipose tissue assessed as standard uptake value at 1.7 MBq, iv administered as single dose measured after 5 mins post-injection by gamma counting; type: ADME, organism-based; settings: in vivo
Muscle tissue [26] = test: Biodistribution in Wistar rat muscle assessed as standard uptake value at 1.7 MBq, iv administered as single dose measured after 5 mins post-injection by gamma counting; type: ADME, organism-based; settings: in vivo
Harderian gland = test: Biodistribution in Wistar rat harderian gland assessed as standard uptake value at 1.7 MBq, iv administered as single dose measured after 5 mins post-injection by gamma counting; type: ADME, organism-based; settings: in vivo
Testes [27] = test: Biodistribution in Wistar rat testes assessed as standard uptake value at 1.7 MBq, iv administered as single dose measured after 5 mins post-injection by gamma counting; type: ADME, organism-based, Testis; settings: in vivo
Testes [28] = test: Biodistribution in Wistar rat testes assessed as standard uptake value at 1.7 MBq, iv administered as single dose measured after 60 mins post-injection by gamma counting; type: ADME, organism-based, Testis; settings: in vivo, 1 h
Pancreas [29] = test: Biodistribution in Wistar rat pancreas at 1.7 MBq, iv administered as single dose measured after 1 min post-injection by gamma counting; type: ADME, organism-based; settings: in vivo
Lung [30] = test: Biodistribution in Wistar rat lung at 1.7 MBq, iv administered as single dose measured after 1 min post-injection by gamma counting; type: ADME, organism-based; settings: in vivo
Pancreas [31] = test: Biodistribution in Wistar rat pancreas assessed as standard uptake value at 1.7 MBq, iv administered as single dose measured after 10 mins post-injection by gamma counting; type: ADME, organism-based; settings: in vivo
Adrenal gland [32] = test: Biodistribution in Wistar rat adrenal gland assessed as standard uptake value at 1.7 MBq, iv administered as single dose measured after 10 mins post-injection by gamma counting; type: ADME, organism-based; settings: in vivo
[33] = Biodistribution in Wistar rat adipose tissue assessed as standard uptake value at 1.7 MBq, iv administered as single dose measured after 10 mins post-injection by gamma counting; type: ADME, organism-based; settings: in vivo
[34] = Biodistribution in Wistar rat stomach at 1.7 MBq, iv administered as single dose measured after 1 min post-injection by gamma counting; type: ADME, organism-based; settings: in vivo
Spleen [35] = test: Biodistribution in Wistar rat spleen at 1.7 MBq, iv administered as single dose measured after 5 mins post-injection by gamma counting; type: ADME, organism-based; settings: in vivo
Kidney [36] = test: Biodistribution in Wistar rat kidney at 1.7 MBq, iv administered as single dose measured after 5 mins post-injection by gamma counting; type: ADME, organism-based; settings: in vivo
Lung [37] = test: Biodistribution in Wistar rat lung at 1.7 MBq, iv administered as single dose measured after 5 mins post-injection by gamma counting; type: ADME, organism-based; settings: in vivo

For O=C1Nc2ccccc2/C1=C/c1ccc([18F])cc1, the Drug uptake (Pancreas [1]) was 0.28 %ID, the Drug uptake (Heart) was 0.35 %ID and the Drug uptake (Femur [2]) was 0.32 %ID. For the same molecule, the Drug uptake (Kidney [3]) was 1.45 %ID, the Drug uptake (Lung [4]) was 0.33 %ID and the remaining at 0.05 h [5] was 54%. For the same molecule, the remaining at 20 min [6] was 12%, the Drug uptake (Brain [7]) was 0.2 %ID and the Kp at 5 min [8] was 6.7. For the same molecule, the SUV (Brain [9]) was 0.41%, the SUV (Spleen [10]) was 0.28% and the SUV (Adrenal gland [11]) was 1.39%. The SUV (Kidney [12]) was 1.69%, the SUV [13] was 0.7% and the SUV (Lung [14]) was 4.26%. For the same molecule, the SUV [15] was 1.55%, the SUV (Muscle tissue [16]) was 0.45% and the SUV (Thymus [17]) was 0.26%. It also gave an SUV (Femur [18]) of 0.28%, an SUV (Blood) of 0.15% and an SUV [19] of 0.63%. For the same molecule, the SUV (Brain [20]) was 0.18%, the SUV [21] was 1.15% and the SUV (Thymus [22]) was 0.13%. It also gave an SUV (Liver) of 1.3%, an SUV (Femur [23]) of 0.19% and an SUV (Pancreas [24]) of 1.66%. For the same molecule, the SUV [25] was 1.21%, the SUV (Muscle tissue [26]) was 0.83% and the SUV (Harderian gland) was 2.43%. For the same molecule, the SUV (Testes [27]) was 0.41%, the SUV (Testes [28]) was 0.19% and the Drug uptake (Pancreas [29]) was 0.56 %ID. It also gave a Drug uptake (Lung [30]) of 2.68 %ID, an SUV (Pancreas [31]) of 1.13% and an SUV (Adrenal gland [32]) of 3.2%. It also gave an SUV [33] of 1.26%, a Drug uptake [34] of 0.71 %ID and a Drug uptake (Spleen [35]) of 0.23 %ID. It also gave a Drug uptake (Kidney [36]) of 2.51 %ID and a Drug uptake (Lung [37]) of 1.02 %ID.
